{
  "source": "patent US10487291B2",
  "about": "“Detergent or cleaning agent having GLDA-enhanced antimicrobial effect” (Henkel AG & Co. KGaA, priority 2016, dated 2019)",
  "tested_on": "Pseudomonas aeruginosa",
  "experiment": "Test for determining the reduction of Pseudomonas aeruginosa according to EN 1276",
  "assay_type": "cell-based",
  "conditions": "for reduction of Pseudomonas aeruginosa (antibacterial effect): EN 1276",
  "protocol": "The washing agent was used in a test for determining the reduction of Pseudomonas aeruginosa according to EN 1276. The obtained value served as a reference. 0.10 wt. % GLDA or 0.50 wt. % were then added to the washing agent and likewise used in the test for determining the reduction of Pseudomonas aeruginosa according to EN 1276. The all-purpose cleaner was used in a test for determining the reduction of Pseudomonas aeruginosa according to EN 1276. The obtained value served as a reference. 0.10 wt. % GLDA or 0.50 wt. % were then added to the all-purpose cleaner and likewise used in the test for determining the reduction of Pseudomonas aeruginosa according to EN 1276.",
  "data": [
    {"molecule": "O=C(O)CC[C@@H](C(=O)O)N(CC(=O)O)CC(=O)O", "note": "[Glutamic acid diacetic acid (GLDA), glutamic acid-N,N-diacetic acid]", "values": [
      {"measurement": "reduction of Pseudomonas aeruginosa (antibacterial effect)", "setting": "Table 1, Example 1, concentration glutamic acid diacetic acid 0.10% (according to the invention)", "result": "7.65E+00"},
      {"measurement": "reduction of Pseudomonas aeruginosa (antibacterial effect)", "setting": "Table 1, Example 1, concentration glutamic acid diacetic acid 0.50% (according to the invention)", "result": "6.90E+01"},
      {"measurement": "reduction of Pseudomonas aeruginosa (antibacterial effect)", "setting": "Table 2, Example 2, concentration glutamic acid diacetic acid 0.10% (according to the invention)", "result": "7.65E+00"},
      {"measurement": "reduction of Pseudomonas aeruginosa (antibacterial effect)", "setting": "Table 2, Example 2, concentration glutamic acid diacetic acid 0.50% (according to the invention)", "result": "6.90E+01"},
      {"measurement": "antimicrobial / antibacterial effect (in words)", "setting": "substance on its own (GLDA itself; agent exclusively comprising QAC)", "result": "does not have an antimicrobial effect"}
    ]}
  ]
}
